ChEMBL document CHEMBL1201862, “PubChem BioAssay data set” (2004)
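Method: 48-hour compound exposure of cells in 96-well plates, five concentrations, linear interpolation of endpoints. The concentration for 50% growth inhibition is given as GI50.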 The source made the active and inactive calls. Rule as the data show it: active = GI50 up to about 1.1 µM and inactive = higher.

Assays:
Assay in all cases: inhibition of tumour cell growth, NCI panel, 48 h
ACHN = test system: ACHN
BT-549 = test system: BT-549
CAKI-1 = test system: CAKI-1
DU-145 = test system: DU-145
IGROV-1 = test system: IGROV-1
LOX IMVI = test system: LOX IMVI
M14 = test system: M14
MDA-MB-231 = test system: MDA-MB-231
MOLT-4 = test system: MOLT-4
NCI-H23 = test system: NCI-H23
OVCAR-5 = test system: OVCAR-5
OVCAR-8 = test system: OVCAR-8
RPMI-8226 = test system: RPMI-8226
SK-MEL-28 = test system: SK-MEL-28
T47D = test system: T47D
TK-10 = test system: TK-10
UACC-62 = test system: UACC-62
UO-31 = test system: UO-31
SNB-75 = test system: SNB-75
SNB-78 = test system: SNB-78

Measured: GI50

Cc1c(/N=C/C=C/c2ccccc2)c(=O)n(-c2ccccc2)n1C
inactive: ACHN 29.8 µM | BT-549 22.8 µM | CAKI-1 34.7 µM | DU-145 33.9 µM | IGROV-1 33.7 µM | LOX IMVI 4.86 µM | M14 16.3 µM | MDA-MB-231 34.8 µM | MOLT-4 12.9 µM | NCI-H23 23.4 µM | OVCAR-5 58.9 µM | OVCAR-8 17.4 µM | RPMI-8226 14.3 µM | SK-MEL-28 14.6 µM | T47D 23 µM | TK-10 30.2 µM | UACC-62 17.2 µM | UO-31 36.5 µM

CN(C)CCCNC(=O)c1cccc2ccccc12
inactive: ACHN > 100 µM | LOX IMVI > 100 µM | MOLT-4 > 100 µM | NCI-H23 > 100 µM | OVCAR-8 > 100 µM | SK-MEL-28 > 100 µM | SNB-75 > 100 µM | SNB-78 > 100 µM | TK-10 > 100 µM | UACC-62 > 100 µM | UO-31 > 10 µM

CN1C=C(C(N)=O)C2CC(O)[C@@](NC(=O)CS(N)(=O)=O)(C(=O)O)C2C1 (some centres not stated)
inactive: ACHN 4.88 µM | CAKI-1 5.46 µM | IGROV-1 2.73 µM | LOX IMVI 2.37 µM | M14 1.49 µM | MOLT-4 1.7 µM | NCI-H23 1.86 µM | OVCAR-5 2.42 µM | OVCAR-8 5.9 µM | RPMI-8226 18 µM | SK-MEL-28 2.43 µM | SNB-75 2.23 µM | SNB-78 2.75 µM | TK-10 3.92 µM | UACC-62 2.17 µM | UO-31 3.05 µM

O=C(Nc1ccn(CCO)c(=O)n1)c1ccccc1
inactive: ACHN > 100 µM | CAKI-1 > 100 µM | IGROV-1 > 100 µM | LOX IMVI > 100 µM | M14 > 100 µM | OVCAR-5 > 100 µM | OVCAR-8 > 100 µM | RPMI-8226 > 100 µM | SK-MEL-28 > 100 µM | SNB-75 > 100 µM | SNB-78 > 100 µM | TK-10 > 100 µM | UACC-62 > 100 µM | UO-31 > 100 µM

CCOC(=O)NC(Nc1cc(Cl)ccc1OC)(C(F)(F)F)C(F)(F)F
inactive: ACHN > 100 µM | BT-549 > 100 µM | CAKI-1 > 100 µM | DU-145 > 100 µM | IGROV-1 > 100 µM | LOX IMVI > 100 µM | M14 > 100 µM | MDA-MB-231 > 100 µM | MOLT-4 > 100 µM | NCI-H23 > 100 µM | OVCAR-5 > 100 µM | RPMI-8226 > 100 µM | SK-MEL-28 > 100 µM | SNB-75 > 100 µM | T47D > 100 µM | TK-10 > 100 µM | UACC-62 > 100 µM | UO-31 30.1 µM

S=C1SC(=N\c2ccccc2)/C(=N/c2ccccc2)N1c1ccc2ccccc2c1
inactive: BT-549 > 100 µM | CAKI-1 > 100 µM | DU-145 > 100 µM | IGROV-1 > 100 µM | M14 > 100 µM | MDA-MB-231 > 100 µM | NCI-H23 > 100 µM | OVCAR-5 > 100 µM | OVCAR-8 > 100 µM | RPMI-8226 > 100 µM | SK-MEL-28 > 100 µM | SNB-75 74.8 µM | T47D > 100 µM | UACC-62 > 100 µM | UO-31 > 100 µM

CCCO/N=[N+](\[O-])N(CC)CC
inactive: ACHN > 100 µM | IGROV-1 > 100 µM | LOX IMVI > 100 µM | M14 > 100 µM | MOLT-4 > 100 µM | NCI-H23 > 100 µM | OVCAR-5 > 100 µM | OVCAR-8 > 100 µM | SK-MEL-28 > 100 µM | SNB-78 > 100 µM | TK-10 > 100 µM | UACC-62 > 100 µM | UO-31 > 100 µM

C=CCN(CCN(CC=C)S(=O)(=O)c1ccc(C)cc1)S(=O)(=O)c1ccc(C)cc1
inactive: ACHN > 100 µM | DU-145 > 100 µM | LOX IMVI 55.1 µM | M14 > 100 µM | MDA-MB-231 > 100 µM | MOLT-4 > 100 µM | NCI-H23 > 100 µM | OVCAR-8 > 100 µM | SK-MEL-28 > 100 µM | SNB-75 > 100 µM | T47D > 100 µM | TK-10 > 100 µM | UO-31 > 100 µM

O=C(O)C1(Cc2ccccc2)Cc2ccccc2C1
inactive: ACHN > 100 µM | BT-549 > 100 µM | DU-145 > 100 µM | IGROV-1 > 100 µM | LOX IMVI > 100 µM | M14 > 100 µM | MDA-MB-231 > 100 µM | MOLT-4 > 100 µM | NCI-H23 > 100 µM | OVCAR-5 > 100 µM | OVCAR-8 > 100 µM | RPMI-8226 > 100 µM | SK-MEL-28 > 100 µM | SNB-75 10.6 µM | T47D > 100 µM | TK-10 > 100 µM | UACC-62 > 100 µM | UO-31 > 100 µM

Nc1nc(=O)[nH]c2c1cnn2COCCO
inactive: ACHN > 100 µM | CAKI-1 > 100 µM | IGROV-1 > 100 µM | LOX IMVI > 100 µM | M14 > 100 µM | MOLT-4 > 100 µM | NCI-H23 17.3 µM | OVCAR-5 11.3 µM | OVCAR-8 > 100 µM | RPMI-8226 > 100 µM | SK-MEL-28 37.1 µM | SNB-75 > 100 µM | SNB-78 21.5 µM | TK-10 20.7 µM | UO-31 > 100 µM

C[C@H]1SC(c2ccc(Cl)cc2Cl)N(NC(=O)c2ccncc2)C1=O (some centres not stated)
inactive: ACHN 27.5 µM | BT-549 36.6 µM | CAKI-1 > 100 µM | DU-145 38.1 µM | IGROV-1 41.2 µM | M14 21.8 µM | MDA-MB-231 33.9 µM | MOLT-4 > 10 µM | NCI-H23 33.3 µM | OVCAR-5 28.8 µM | OVCAR-8 49.9 µM | RPMI-8226 35.6 µM | SK-MEL-28 31.3 µM | SNB-75 45.7 µM | T47D 37.1 µM | UACC-62 26.2 µM | UO-31 25.3 µM

C[N+](C)(CCCCCC[N+](C)(C)CCCN1C(=O)c2cccc3cccc(c23)C1=O)CCCN1C(=O)c2cccc3cccc(c23)C1=O
inactive: ACHN > 100 µM | BT-549 > 100 µM | CAKI-1 78 µM | DU-145 > 100 µM | IGROV-1 > 100 µM | LOX IMVI > 100 µM | MDA-MB-231 56.2 µM | MOLT-4 > 100 µM | NCI-H23 > 100 µM | OVCAR-5 > 100 µM | OVCAR-8 > 100 µM | RPMI-8226 > 100 µM | SK-MEL-28 > 100 µM | T47D > 100 µM | TK-10 > 100 µM | UACC-62 33 µM | UO-31 > 100 µM

COc1ccc(C2C(Cl)C(=O)N2NC(=O)c2ccccc2O)cc1OC (configuration not stated)
inactive: ACHN > 100 µM | IGROV-1 > 100 µM | LOX IMVI 36.5 µM | M14 > 100 µM | MOLT-4 42.5 µM | NCI-H23 > 100 µM | OVCAR-8 93.1 µM | SK-MEL-28 > 100 µM | SNB-78 > 100 µM | TK-10 > 100 µM | UACC-62 > 100 µM | UO-31 53.2 µM
